Measured values taken from ChEMBL document CHEMBL4842364 (J Med Chem, 2021).
pIC50: −log10 of the molar value. Activity calls are given as the source filed them. The calls are words filed in the database; no cut-off is given here.

How the values were obtained:
Cytochrome P450 3A4 = Cytochrome P450 3A4 (Homo sapiens, UniProt P08684); assay: Inhibition of CYP3A4 (unknown origin); type: ADME
A-427 = assay: Antitumor activity against human A-427 cells xenografted in SCID mouse assessed as reduction in tumor growth at 80 mg/kg, po administered once daily for 28 days and measured twice per weeks; type: functional, organism-based; settings: time 28.0 day
Wee1-like protein kinase = Wee1-like protein kinase (Homo sapiens, UniProt P30291)
Description: Displacement of Alexa Fluor labelled kinase tracer178 from WEE1 (unknown origin) incubated for 60 mins by FRET assay

[1] = AUC(0 to 24 hrs) in rat at 60 mg/kg, po; type: ADME, organism-based; set-up: time < 24 hr, route oral, dose 60 mg/kg; settings: in vivo
[2] = target: Serine/threonine-protein kinase PLK3 (Homo sapiens, UniProt Q9H4B4); assay: Inhibition of PLK3 (unknown origin) at 1 uM relative to control
[3] = test system: Epidermal growth factor receptor (Homo sapiens), P00533 [UNDEFINED MUTATION]; assay: Inhibition of EGFR d746-750 mutant (unknown origin) at 1 uM relative to control
[4] = target: T1, Serine/threonine-protein kinase Nek1 (Homo sapiens) (UniProt Q96PY6); assay: Inhibition of NEK1 (unknown origin) at 1 uM relative to control
T1 sequence (whole entry): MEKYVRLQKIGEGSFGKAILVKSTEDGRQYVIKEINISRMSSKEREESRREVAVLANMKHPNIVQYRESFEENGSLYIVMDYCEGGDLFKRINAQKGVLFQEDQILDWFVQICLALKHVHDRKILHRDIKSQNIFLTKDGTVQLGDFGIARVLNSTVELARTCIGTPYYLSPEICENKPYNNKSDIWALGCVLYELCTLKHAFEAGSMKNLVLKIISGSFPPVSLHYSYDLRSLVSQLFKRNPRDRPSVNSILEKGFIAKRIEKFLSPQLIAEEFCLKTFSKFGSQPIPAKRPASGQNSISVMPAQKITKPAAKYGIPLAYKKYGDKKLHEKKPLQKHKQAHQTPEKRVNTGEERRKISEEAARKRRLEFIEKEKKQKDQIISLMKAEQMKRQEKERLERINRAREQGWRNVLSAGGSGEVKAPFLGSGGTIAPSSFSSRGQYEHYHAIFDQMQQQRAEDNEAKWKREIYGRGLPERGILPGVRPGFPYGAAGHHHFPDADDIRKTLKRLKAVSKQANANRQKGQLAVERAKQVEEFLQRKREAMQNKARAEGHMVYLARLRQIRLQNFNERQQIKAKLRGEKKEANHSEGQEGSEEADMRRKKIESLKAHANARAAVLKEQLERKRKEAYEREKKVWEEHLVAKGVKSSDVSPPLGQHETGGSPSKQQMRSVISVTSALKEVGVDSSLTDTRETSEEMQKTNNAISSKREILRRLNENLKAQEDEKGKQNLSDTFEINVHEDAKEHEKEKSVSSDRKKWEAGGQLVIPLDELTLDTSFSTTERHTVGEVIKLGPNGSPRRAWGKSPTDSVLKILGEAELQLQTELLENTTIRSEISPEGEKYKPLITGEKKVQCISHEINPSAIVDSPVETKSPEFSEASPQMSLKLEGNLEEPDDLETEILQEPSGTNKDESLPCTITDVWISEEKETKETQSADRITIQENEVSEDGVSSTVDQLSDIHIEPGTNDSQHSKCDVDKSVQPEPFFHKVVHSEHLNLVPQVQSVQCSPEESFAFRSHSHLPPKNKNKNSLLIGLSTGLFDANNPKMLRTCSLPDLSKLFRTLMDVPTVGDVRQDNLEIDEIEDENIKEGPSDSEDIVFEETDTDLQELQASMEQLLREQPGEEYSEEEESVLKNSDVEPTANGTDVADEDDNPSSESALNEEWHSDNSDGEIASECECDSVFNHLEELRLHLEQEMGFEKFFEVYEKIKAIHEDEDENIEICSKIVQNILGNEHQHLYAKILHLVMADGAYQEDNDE

[5] = target: Serine/threonine-protein kinase PLK2 (Homo sapiens, UniProt Q9NYY3); assay: Inhibition of PLK2 (unknown origin)
[6] = Volume of distribution at steady state in Beagle dog at 3 mg/kg, iv measured upto 24 hrs by LC-MS/MS analysis; type: ADME, organism-based, Canis lupus familiaris; settings: in vivo, read-out: Vdss
[7] = target: Epidermal growth factor receptor (Homo sapiens, UniProt P00533, 747-749DEL/A750P); assay: Inhibition of EGFR d747-749/A750P mutant (unknown origin)
[8] = target: T2, Serine/threonine-protein kinase PLK1 (Homo sapiens, UniProt P53350); assay: Inhibition of PLK1 (unknown origin) at 1 uM relative to control
[9] = Efflux ratio of permeability from basolateral to apical side over apical to basolateral side in human Caco-2 cells; type: ADME, cell-based
NCI-H23 = assay: Antiproliferative activity against human NCI-H23 cells assessed as reduction in cell viability after 4 days by CellTiter-Glo assay; settings: Homo sapiens, NCI-H23, 96 h
[10] = target: T3, Mitogen-activated protein kinase kinase kinase 3 (Homo sapiens) (UniProt Q99759); assay: Inhibition of MAP3K3 (unknown origin) at 1 uM relative to control
T3 sequence (whole entry): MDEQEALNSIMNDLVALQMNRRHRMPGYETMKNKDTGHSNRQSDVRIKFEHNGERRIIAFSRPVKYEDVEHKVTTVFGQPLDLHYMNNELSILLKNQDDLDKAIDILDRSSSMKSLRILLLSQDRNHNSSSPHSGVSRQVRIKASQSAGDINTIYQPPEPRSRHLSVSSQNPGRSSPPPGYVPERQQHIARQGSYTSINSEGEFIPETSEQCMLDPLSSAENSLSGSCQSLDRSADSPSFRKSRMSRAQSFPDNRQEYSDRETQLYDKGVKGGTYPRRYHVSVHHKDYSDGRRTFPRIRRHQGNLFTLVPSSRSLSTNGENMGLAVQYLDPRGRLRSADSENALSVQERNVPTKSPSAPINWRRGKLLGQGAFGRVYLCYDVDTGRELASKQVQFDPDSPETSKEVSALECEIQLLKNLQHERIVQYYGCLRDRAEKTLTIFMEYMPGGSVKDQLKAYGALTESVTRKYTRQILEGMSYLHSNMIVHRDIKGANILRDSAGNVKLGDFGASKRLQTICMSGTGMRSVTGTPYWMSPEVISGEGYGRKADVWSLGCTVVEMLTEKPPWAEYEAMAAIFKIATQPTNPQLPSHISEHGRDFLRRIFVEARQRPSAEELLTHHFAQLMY

[11] = Intrinsic clearance in human hepatocytes; type: ADME, cell-based, Hepatocyte; settings: read-out: CLH
[12] = Intrinsic clearance in human microsomes; type: ADME, Microsome
[13] = Half life in Beagle dog at 3 mg/kg, iv measured upto 24 hrs by LC-MS/MS analysis; type: ADME, organism-based, Canis lupus familiaris; settings: in vivo
[14] = target: T2, Serine/threonine-protein kinase PLK1; assay: Inhibition of PLK1 (unknown origin)
[15] = AUC in mouse plasma at 80 mg/kg, po administered once daily for 28 days; type: ADME, organism-based; set-up: time 28 day, dose 80 mg/kg
[16] = Plasma protein binding in human; type: ADME, cell-free; settings: read-out: PPB (converted)

T2 sequence (P53350 whole entry): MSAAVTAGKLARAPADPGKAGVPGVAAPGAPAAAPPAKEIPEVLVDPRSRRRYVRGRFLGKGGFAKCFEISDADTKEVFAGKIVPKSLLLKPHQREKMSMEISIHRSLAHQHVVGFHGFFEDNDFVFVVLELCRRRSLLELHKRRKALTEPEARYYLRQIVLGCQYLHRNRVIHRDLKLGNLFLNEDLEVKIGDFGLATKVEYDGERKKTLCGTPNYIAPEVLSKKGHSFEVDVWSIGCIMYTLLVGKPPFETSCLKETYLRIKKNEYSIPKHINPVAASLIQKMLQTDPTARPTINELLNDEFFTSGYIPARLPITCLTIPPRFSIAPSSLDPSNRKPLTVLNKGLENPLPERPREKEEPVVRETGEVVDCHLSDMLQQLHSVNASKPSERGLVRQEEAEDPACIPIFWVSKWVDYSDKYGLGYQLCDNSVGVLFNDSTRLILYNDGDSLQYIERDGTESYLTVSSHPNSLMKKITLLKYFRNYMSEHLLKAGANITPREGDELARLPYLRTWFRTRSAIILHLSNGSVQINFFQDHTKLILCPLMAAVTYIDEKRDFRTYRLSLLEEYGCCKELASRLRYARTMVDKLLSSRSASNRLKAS
Wee1-like protein kinase, sequence (P30291 whole entry): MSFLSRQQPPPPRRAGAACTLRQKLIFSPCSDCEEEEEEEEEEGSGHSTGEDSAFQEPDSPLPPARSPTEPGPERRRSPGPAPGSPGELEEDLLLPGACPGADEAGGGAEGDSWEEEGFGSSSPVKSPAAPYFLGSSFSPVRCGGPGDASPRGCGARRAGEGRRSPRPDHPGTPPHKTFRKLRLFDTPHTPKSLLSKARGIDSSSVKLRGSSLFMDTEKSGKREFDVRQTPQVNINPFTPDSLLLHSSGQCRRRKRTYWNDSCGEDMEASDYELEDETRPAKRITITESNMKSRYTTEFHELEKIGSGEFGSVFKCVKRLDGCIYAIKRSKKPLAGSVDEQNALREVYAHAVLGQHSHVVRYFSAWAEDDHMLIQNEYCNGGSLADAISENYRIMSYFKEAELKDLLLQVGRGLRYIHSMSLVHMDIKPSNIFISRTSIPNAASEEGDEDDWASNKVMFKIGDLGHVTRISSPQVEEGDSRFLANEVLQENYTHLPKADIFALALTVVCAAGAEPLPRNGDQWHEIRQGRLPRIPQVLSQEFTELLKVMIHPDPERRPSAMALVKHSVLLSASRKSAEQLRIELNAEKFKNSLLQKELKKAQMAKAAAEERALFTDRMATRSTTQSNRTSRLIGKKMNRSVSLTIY
Serine/threonine-protein kinase PLK3, sequence (Q9H4B4 whole entry, looked up): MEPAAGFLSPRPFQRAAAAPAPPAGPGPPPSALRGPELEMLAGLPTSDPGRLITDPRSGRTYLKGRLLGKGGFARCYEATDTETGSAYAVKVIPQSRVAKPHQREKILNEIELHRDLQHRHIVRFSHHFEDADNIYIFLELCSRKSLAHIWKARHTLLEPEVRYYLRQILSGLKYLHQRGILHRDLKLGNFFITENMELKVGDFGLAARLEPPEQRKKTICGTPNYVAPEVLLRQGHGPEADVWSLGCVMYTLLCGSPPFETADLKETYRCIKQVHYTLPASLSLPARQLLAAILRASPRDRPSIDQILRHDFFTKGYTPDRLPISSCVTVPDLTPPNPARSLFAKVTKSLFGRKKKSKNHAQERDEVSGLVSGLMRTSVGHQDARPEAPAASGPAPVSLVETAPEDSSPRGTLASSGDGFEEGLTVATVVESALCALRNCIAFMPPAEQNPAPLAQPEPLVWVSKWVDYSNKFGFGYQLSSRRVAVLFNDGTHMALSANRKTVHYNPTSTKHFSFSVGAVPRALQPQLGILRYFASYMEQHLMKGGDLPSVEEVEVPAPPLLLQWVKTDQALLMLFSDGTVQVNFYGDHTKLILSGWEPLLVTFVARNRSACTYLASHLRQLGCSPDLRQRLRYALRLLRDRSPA
Cytochrome P450 3A4, sequence (P08684 whole entry): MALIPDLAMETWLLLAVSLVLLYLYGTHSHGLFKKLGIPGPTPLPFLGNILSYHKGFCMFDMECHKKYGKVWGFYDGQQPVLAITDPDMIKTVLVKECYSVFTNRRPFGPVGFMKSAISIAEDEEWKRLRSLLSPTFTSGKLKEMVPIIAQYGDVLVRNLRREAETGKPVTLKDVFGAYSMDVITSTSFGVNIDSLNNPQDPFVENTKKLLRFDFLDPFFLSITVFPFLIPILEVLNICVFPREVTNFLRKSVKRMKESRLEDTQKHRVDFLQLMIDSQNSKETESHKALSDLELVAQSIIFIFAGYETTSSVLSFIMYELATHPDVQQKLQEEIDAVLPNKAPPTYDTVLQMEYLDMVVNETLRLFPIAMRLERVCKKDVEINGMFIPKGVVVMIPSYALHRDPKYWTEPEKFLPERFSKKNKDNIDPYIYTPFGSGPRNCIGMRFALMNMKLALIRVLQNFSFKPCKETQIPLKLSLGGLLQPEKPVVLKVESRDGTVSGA
Epidermal growth factor receptor, sequence (P00533 whole entry, looked up, stated change not applied): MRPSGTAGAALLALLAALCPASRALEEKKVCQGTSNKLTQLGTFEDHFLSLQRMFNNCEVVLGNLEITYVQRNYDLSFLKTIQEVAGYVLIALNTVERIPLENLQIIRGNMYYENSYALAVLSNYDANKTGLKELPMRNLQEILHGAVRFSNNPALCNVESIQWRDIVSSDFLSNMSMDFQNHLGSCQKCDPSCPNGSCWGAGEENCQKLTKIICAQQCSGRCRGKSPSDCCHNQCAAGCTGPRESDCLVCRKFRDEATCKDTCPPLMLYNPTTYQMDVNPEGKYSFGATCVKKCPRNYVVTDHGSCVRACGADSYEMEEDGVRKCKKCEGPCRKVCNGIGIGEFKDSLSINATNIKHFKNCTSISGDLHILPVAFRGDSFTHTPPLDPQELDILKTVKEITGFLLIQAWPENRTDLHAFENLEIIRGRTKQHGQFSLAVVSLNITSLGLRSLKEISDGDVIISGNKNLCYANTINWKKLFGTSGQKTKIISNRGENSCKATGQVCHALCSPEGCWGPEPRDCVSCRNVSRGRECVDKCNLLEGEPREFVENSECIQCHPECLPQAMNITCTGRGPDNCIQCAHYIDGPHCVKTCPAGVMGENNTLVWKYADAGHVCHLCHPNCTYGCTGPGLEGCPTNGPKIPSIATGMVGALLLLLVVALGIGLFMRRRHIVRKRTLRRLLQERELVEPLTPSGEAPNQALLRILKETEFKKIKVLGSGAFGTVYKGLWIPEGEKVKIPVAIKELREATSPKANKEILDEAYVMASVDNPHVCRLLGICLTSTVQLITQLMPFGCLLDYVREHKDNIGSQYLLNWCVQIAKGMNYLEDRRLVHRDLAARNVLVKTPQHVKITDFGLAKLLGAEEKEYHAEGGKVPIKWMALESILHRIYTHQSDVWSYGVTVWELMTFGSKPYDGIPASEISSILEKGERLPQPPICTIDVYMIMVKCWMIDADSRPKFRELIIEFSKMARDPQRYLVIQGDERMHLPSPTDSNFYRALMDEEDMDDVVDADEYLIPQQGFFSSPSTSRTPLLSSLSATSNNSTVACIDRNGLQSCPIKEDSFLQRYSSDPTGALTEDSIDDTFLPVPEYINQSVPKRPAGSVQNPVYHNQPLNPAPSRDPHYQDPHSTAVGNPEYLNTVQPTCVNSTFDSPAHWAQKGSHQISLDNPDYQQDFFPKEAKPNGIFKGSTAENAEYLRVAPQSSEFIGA
Epidermal growth factor receptor (Homo sapiens), P00533 [UNDEFINED MUTATION], sequence (P00533 whole entry, looked up, change not shown): as the sequence (P00533 whole entry, looked up, stated change not applied) above

C=CCn1c(=O)c2cnc(Nc3ccc(N4CCN(C)CC4)cc3)nc2n1-c1ccc2c(n1)C(O)(CC)CC2 (racemic)
pIC50 (Cytochrome P450 3A4): 5.15 | Activity (A-427): Active | pIC50 (Wee1-like protein kinase): 8.41 | AUC(0-t) at 24 h [1]: 27 µM·h | inhibition [2]: > 90% | inhibition [3]: 75% | inhibition [4]: 75% | pIC50 [5]: 7.40 | Vd [6]: 4.4 L/kg | pIC50 [7]: 7.22 | inhibition [8]: 75% | efflux ratio [9]: 7 | pIC50 (NCI-H23): 6.99 | inhibition [10]: 75% | CLint scaled [11]: < 18 mL/min/kg | CLint scaled [12]: 40 mL/min/kg | half-life [13]: 1.4 h | pIC50 [14]: 6.64 | AUC at 672 h [15]: 45 µM·h | fraction unbound [16]: 0.34
